One data set concerns SETVI. In words: Herbicidal activity, test type PE. In kind it is in vivo. The settings on record: TEST-TYP PE; for pest or weed control at 320 g/ha: read-out: herbizide Wirkung SETVI; for herbizide Wirkung SETVI: 320 G/HA.
In data set [1] the test system is VIOTR. In words: Herbicidal activity, test type PE. In kind it is in vivo. As to conditions: TEST-TYP PE; for pest or weed control at 320 g/ha: read-out: herbizide Wirkung VIOTR.
In data set [2] the test system is AMARE. In words: Herbicidal activity, test type PE. As to conditions: TEST-TYP PE; for pest or weed control at 320 g/ha: Amaranthus retroflexus, read-out: herbizide Wirkung AMARE; for herbizide Wirkung AMARE: 320 G/HA. In kind it is in vivo.
A short description of data set [3]: logP by HPLC on reversed-phase columns (C 18), EEC Directive 79/831 Annex V.A8. Format: physicochemical. The settings on record: c18 reversed-phase hplc, reversed-phase (C 18), read-out: log p. The source says: Die Messung der logP Werte erfolgte gemäß EEC Directive 79/831 Annex V.A8 durch HPLC (High Performance Liquid Chromatography) an reversed-phase Säulen (C 18), mit der nachfolgenden Methode: […]

Data set [4] deals with VERPE. In words: Herbicidal activity, test type PE. In kind it is in vivo. The settings on record: TEST-TYP PE; for pest or weed control at 320 g/ha: read-out: herbizide Wirkung VERPE; for herbizide Wirkung VERPE: 320 G/HA.
A further data set relates to MATIN. In words: Herbicidal activity, test type PE. Format: in vivo. The settings on record: TEST-TYP PE; for pest or weed control at 320 g/ha: read-out: herbizide Wirkung MATIN.
In the next data set the test system is STEME. The data set is described as follows: Herbicidal activity, test type PE. As to conditions: TEST-TYP PE, read-out: herbizide Wirkung STEME. Format: in vivo.
Data set [5] has as its system AMARE. In words: Herbicidal activity, test type PO. As to conditions: TEST-TYP PO, 80 G/HA. Format: in vivo.
Data set [6] concerns VERPE. The data set is described as follows: Herbicidal activity, test type PO. Format: in vivo. As to conditions: TEST-TYP PO, 80 G/HA.
Data set [7] has as its system VIOTR. In words: Herbicidal activity, test type PO. Format: in vivo. As to conditions: TEST-TYP PO, 80 G/HA.
Another data set relates to LOLMU. In words: Herbicidal activity, test type PE. In kind it is in vivo. The settings on record: TEST-TYP PE, read-out: herbizide Wirkung LOLMU.
For a further data set, the system named is ECHCG. The data set is described as follows: Herbicidal activity, test type PE. Format: in vivo. The settings on record: TEST-TYP PE, 320 G/HA.
A further data set deals with PHBPU. The data set is described as follows: Herbicidal activity, test type PO. In kind it is in vivo. The settings on record: TEST-TYP PO, 80 G/HA.

Each structure is given as a SMILES string.

Regarding `CCN(C)C=Nc1ncc(C)cc1-c1ccc(Cl)c(C(F)(F)F)c1` [compound 2], the pest or weed control at 320 g/ha with SETVI and with VIOTR [1] was 90% throughout.
On to `CCN(C)C=Nc1ncc(Cl)cc1-c1ccc(Cl)c(C(F)(F)F)c1` [compound 4], for which the pest or weed control at 320 g/ha in the data set with AMARE [2] came to 90%; in the data set with SETVI it was 90%; in the data set with VIOTR [1], 80%.
For `CCN(C=Nc1ncc(C)cc1-c1ccc(Cl)c(C(F)(F)F)c1)CC` [compound 7], the chromatographic logP in data set [3] worked out at 1.75.
For `Cc1cnc(N=CN(C(C)C)C(C)C)c(-c2ccc(Cl)c(C(F)(F)F)c2)c1` [compound 8], the chromatographic logP in [3] amounted to 2.03.
With `CC(=Nc1ncc(C)cc1-c1ccc(Cl)c(C(F)(F)F)c1)N(C)C` [compound 9], the chromatographic logP in data set [3] is 0.87.
Same read-out and setting: then `Cc1cnc(N=CN2CCCC2)c(-c2ccc(Cl)c(C(F)(F)F)c2)c1` [compound 10], with 1.63.
For the compound `CCN(C=Nc1ncc(Cl)cc1-c1ccc(Cl)c(C(F)(F)F)c1)CC` [compound 11], the chromatographic logP in data set [3] came out at 3.63. The pest or weed control at 320 g/ha in the data set with AMARE [2] and with VIOTR [1] was 80% each time.
On to `CC(C)N(C=Nc1ncc(Cl)cc1-c1ccc(Cl)c(C(F)(F)F)c1)C(C)C` [compound 12], for which the chromatographic logP in data set [3] was 3.71.
As to `CN(C)C=Nc1ncc(Cl)cc1-c1ccc(F)c(C(F)(F)F)c1` [compound 13], the chromatographic logP in data set [3] turned out to be 2. Moreover, the pest or weed control at 320 g/ha in the data set on AMARE [2] and in the data set with VERPE [4] was 80% in each case.
Take `CCN(C=Nc1ncc(Cl)cc1-c1ccc(F)c(C(F)(F)F)c1)CC` [compound 15]: in data set [3], the chromatographic logP was found to be 2.59. For the same compound, the pest or weed control at 320 g/ha in the data set with AMARE [2], with MATIN, with SETVI and in the data set with STEME was 80% throughout. Further, the “herbizide Wirkung AMARE” value in the data set with AMARE [5] came to 90. Further, in the data set with VERPE [6], the “herbizide Wirkung VERPE” value came to 80. The “herbizide Wirkung VIOTR” value in the data set on VIOTR [7] turned out to be 80.
Turning to `Fc1ccc(-c2cc(Cl)cnc2N=CN2CCCC2)cc1C(F)(F)F` [compound 16], in data set [3], the chromatographic logP was 1.75. Further, the pest or weed control at 320 g/ha with LOLMU is 80%; in the data set with SETVI, 100%; in the data set with STEME, 80%; in the data set with VERPE [4], 80%.
In the case of `CCN(C)C=Nc1ncc(Br)cc1-c1ccc(Cl)c(C(F)(F)F)c1` [compound 17], in data set [3], the chromatographic logP was 3.09.
`CCN(C)C=Nc1ncc(C)cc1-c1ccc(F)c(C(F)(F)F)c1` [compound 18]: in data set [3], the chromatographic logP turned out to be 1.48. Moreover, the pest or weed control at 320 g/ha with AMARE [2] was 80%; with SETVI it was 90%; with VERPE [4] it was 100%; in the data set on VIOTR [1], 90%.
On to `Cc1cnc(N=CN(C)C)c(-c2ccc(F)c(C(F)(F)F)c2)c1` [compound 19], for which, in data set [3], the chromatographic logP was determined as 1.33.
On to `CC(=Nc1ncc(C)cc1-c1ccc(F)c(C(F)(F)F)c1)N(C)C` [compound 20], for which, in data set [3], the chromatographic logP is 1.3.
In the case of `CC(C)N(C=Nc1ncc(Cl)cc1-c1ccc(F)c(C(F)(F)F)c1)C(C)C` [compound 21], the chromatographic logP in [3] turned out to be 4.19.
As for `CC(=Nc1ncc(Cl)cc1-c1ccc(F)c(C(F)(F)F)c1)N1CCCCC1` [compound 22], the chromatographic logP in [3] was 1.74.
`Cc1cnc(N=CN2CCCC2)c(-c2ccc(F)c(C(F)(F)F)c2)c1` [compound 25]: the chromatographic logP in data set [3] worked out at 1.46. Further, the pest or weed control at 320 g/ha in the data set with AMARE [2] and in the data set on SETVI was 80% each time.
On to `FC(F)(F)c1ccc(-c2cc(Cl)cnc2N=CN2CCCC2)cc1Cl` [compound 26], for which the chromatographic logP in data set [3] was determined as 1.98.
As for `Cc1cnc(N=CN(C)C)c(-c2cccc(C(F)(F)F)c2)c1` [compound 31], the pest or weed control at 320 g/ha in the data set on SETVI and in the data set on VERPE [4] was 80% each time.
Consider `CCN(C)C=Nc1ncc(C)cc1-c1cccc(C(F)(F)F)c1` [compound 32], for which the pest or weed control at 320 g/ha in the data set on AMARE [2] is 80%; in the data set on MATIN, 90%; in the data set with SETVI, 90%; in the data set with VERPE [4], 80%; in the data set on VIOTR [1], 80%.
Take `CCN(C)C=Nc1ncc(-c2ccc(Cl)c(C(F)(F)F)c2)cc1C` [compound 58]: the pest or weed control at 320 g/ha with AMARE [2] was found to be 90%; in the data set with MATIN it was 80%; in the data set on SETVI it was 90%; with VERPE [4], 90%. Besides, the “herbizide Wirkung ECHCG” value in the data set on ECHCG is listed as 90.
Consider `Cc1cc(-c2ccc(Cl)c(C(F)(F)F)c2)cnc1N=CN(C)C` [compound 59], for which the pest or weed control at 320 g/ha in the data set on AMARE [2], in the data set on MATIN, in the data set on STEME, in the data set with VERPE [4] and in the data set on VIOTR [1] was 80% each time.
`Cc1cc(-c2ccc(F)c(C(F)(F)F)c2)cnc1N=CN(C)C` [compound 64]: the pest or weed control at 320 g/ha in the data set on AMARE [2] stood at 90%; in the data set on LOLMU it was 90%; in the data set with MATIN it was 100%; in the data set with SETVI, 90%; with STEME, 90%; in the data set on VERPE [4], 100%. Further, the pest or weed control at 320 g/ha with VIOTR [1] worked out at 90%. For the same compound, the “herbizide Wirkung AMARE” value with AMARE [5] is listed as 80. Further, in the data set with VIOTR [7], the “herbizide Wirkung VIOTR” value came to 80.
With `Cc1cc(-c2cccc(C(F)(F)F)c2)cnc1N=CN(C)C` [compound 76], the pest or weed control at 320 g/ha with AMARE [2] was 90%; with SETVI it was 100%; in the data set on VIOTR [1], 90%.
Consider `CCN(C)C=Nc1ncc(-c2cccc(C(F)(F)F)c2)cc1C` [compound 77], for which the pest or weed control at 320 g/ha with AMARE [2] was found to be 80%; in the data set with LOLMU it was 90%; with SETVI, 90%. Moreover, the “herbizide Wirkung ECHCG” value with ECHCG came out at 90.
For `CCN(C)C=Nc1ncc(-c2ccc(Cl)c(Cl)c2)cc1C` [compound 94], the pest or weed control at 320 g/ha came out at 90% in the data set on SETVI, 80% with VERPE [4] and 80% in the data set on VIOTR [1].
Turning to `Cc1cc(-c2ccc(Cl)c(Cl)c2)cnc1N=CN(C)C` [compound 95], the pest or weed control at 320 g/ha in the data set on SETVI and in the data set with VIOTR [1] was 80% each time.
On to `CCN(C)C=Nc1ncc(-c2cccc(Cl)c2)cc1C` [compound 101], for which the pest or weed control at 320 g/ha with AMARE [2] stood at 80%; in the data set with LOLMU it was 80%; in the data set with MATIN, 95%; with SETVI, 90%; with VIOTR [1], 80%. In addition, the “herbizide Wirkung ECHCG” value in the data set with ECHCG turned out to be 85. In the data set on AMARE [5], the “herbizide Wirkung AMARE” value is given as 80. In addition, the “herbizide Wirkung PHBPU” value in the data set on PHBPU worked out at 80.
Take `Cc1cc(-c2cccc(Cl)c2)cnc1N=CN(C)C` [compound 102]: the pest or weed control at 320 g/ha stood at 80% in the data set on LOLMU, 90% with MATIN, 90% with SETVI and 80% with VIOTR [1].
As to `CCN(C)C=Nc1ncc(-c2cccc(C)c2)cc1C` [compound 105], the “herbizide Wirkung ECHCG” value in the data set on ECHCG is recorded as 80. The pest or weed control at 320 g/ha in the data set with SETVI was 80%.
Take `Cc1cccc(-c2cnc(N=CN(C)C)c(C)c2)c1` [compound 106]: the pest or weed control at 320 g/ha with MATIN and in the data set with VIOTR [1] was 80% throughout.
For the compound `CCN(C)C=Nc1ncc(C)cc1-c1ccc(Cl)c(C(F)(F)F)c1` [compound 127], the pest or weed control at 320 g/ha in the data set on AMARE [2] came to 90%; in the data set on MATIN, 80%. The “herbizide Wirkung SETVI” value in the data set on SETVI worked out at 90. Moreover, the “herbizide Wirkung VIOTR” value with VIOTR [1] (320 G/HA) turned out to be 80.
`CCN(C=Nc1ncc(Cl)cc1-c1ccc(F)c(C(F)(F)F)c1)CC` [compound 140]: the “herbizide Wirkung MATIN” value in the data set on MATIN (320 G/HA) stood at 80. Further, the “herbizide Wirkung SETVI” value with SETVI is 80. Moreover, the “herbizide Wirkung AMARE” value in the data set on AMARE [5] came to 80. Also, the “herbizide Wirkung PHBPU” value with PHBPU is on record as 80. For the same compound, in the data set on VERPE [6], the “herbizide Wirkung VERPE” value was 80.
Take `Fc1ccc(-c2cc(Cl)cnc2N=CN2CCCC2)cc1C(F)(F)F` [compound 141]: the pest or weed control at 320 g/ha with AMARE [2] was 80%. In addition, in the data set on SETVI, the “herbizide Wirkung SETVI” value is recorded as 80.
With `CCN(C)C=Nc1ncc(C)cc1-c1ccc(F)c(C(F)(F)F)c1` [compound 142], the “herbizide Wirkung AMARE” value in the data set with AMARE [2] was found to be 80. In addition, the values for the pest or weed control at 320 g/ha with MATIN and in the data set on STEME were 80% and 90%, respectively. The “herbizide Wirkung SETVI” value with SETVI turned out to be 90. Moreover, in the data set on VERPE [4], the “herbizide Wirkung VERPE” value is 90.
`Cc1cnc(N=CN2CCCC2)c(-c2ccc(F)c(C(F)(F)F)c2)c1` [compound 147]: in the data set on VERPE [4], the pest or weed control at 320 g/ha came to 90%.
For the compound `CCN(C)C=Nc1ncc(-c2ccc(Cl)c(C(F)(F)F)c2)cc1C` [compound 175], the “herbizide Wirkung AMARE” value with AMARE [2] was 80. The “herbizide Wirkung ECHCG” value in the data set with ECHCG was determined as 90. The “herbizide Wirkung VERPE” value in the data set on VERPE [4] is reported as 90.

These data come from patent EP2264010A1, “Hetarylamidines” (Bayer CropScience AG, priority 2009, dated 2010).
